Results as given in the NIST ThermoML archive (doi:10.1016/j.tca.2011.10.013).
Numbers after ± are expanded uncertainties.

Experiment: mn = molality of the nth substance listed, in mol/kg
Conditions: 101 kPa, Liquid; for speed of sound: Sing-around technique in a fixed-path interferometer; for mass density: Vibrating tube method

O=C[C@H](O)[C@@H](O)[C@H](O)[C@H](O)CO [D-glucose] + O
m1 = 1.13
Conditions | mass density [kg/m3] | speed of sound [m/s]
298.15 K | 1065.07 ± 0.17 | 1564.8 ± 1.4
303.15 K | 1063.3 ± 0.17 | 1574.3 ± 1.4
308.15 K | 1061.36 ± 0.17 | 1582.4 ± 1.4
313.15 K | 1059.24 ± 0.17 | 1589.1 ± 1.4
318.15 K | 1056.98 ± 0.16 | 1594.4 ± 1.4
323.15 K | 1054.25 ± 0.16 | 1598.5 ± 1.4

OC[C@H]1O[C@@](CO)(O[C@H]2O[C@H](CO)[C@@H](O)[C@H](O)[C@H]2O)[C@@H](O)[C@@H]1O [D-sucrose] + O
m1 = 1.274
Conditions | mass density [kg/m3] | speed of sound [m/s]
298.15 K | 1127.37 ± 0.2 | 1607.9 ± 1.4
303.15 K | 1125.37 ± 0.2 | 1615.6 ± 1.4
308.15 K | 1123.2 ± 0.2 | 1621.9 ± 1.4
313.15 K | 1120.73 ± 0.2 | 1627 ± 1.4
318.15 K | 1118.18 ± 0.2 | 1630.8 ± 1.4
323.15 K | 1115.44 ± 0.2 | 1633.3 ± 1.4
